Holding throughout (type): cell-based
One assay concerns Pseudomonas aeruginosa. Briefly: standard disc-plate method, zone of inhibition. To be noted: Table IV. Also on record: key: --: A dash indicates no observed zone of inhibition; hazy zone. The text has this: (§1) In Table IV below, the in vitro antimicrobial activity of 7-[2-(2-thienyl)acetamido]-3-bromo-3-cephem-4-carboxylic acid is presented for several illustrative microorganisms. The data presented were obtained in the standard disc-plate method with the numerical values recording the diameter in millimeters of the zones of inhibition observed with the named microorganisms.

The subject of assay [1] is Saccharomyces pastorianus. Briefly: standard disc-plate method, zone of inhibition. Also on record: key: --: A dash indicates no observed zone of inhibition; hazy zone. As to conditions: Table IV.
Excerpt: as §1

The subject of a further assay is Serratia marcescens. Briefly: standard disc-plate method, zone of inhibition. Also on record: key: --: A dash indicates no observed zone of inhibition; hazy zone. As to conditions: Table IV.
Excerpt: as §1

Assay [2] deals with Methicillin resistant Staphylococcus. The experiment in a line: Gradient Plate technique, MIC. As to conditions: Staphylococcus; Clinical Isolate X400 (methicillin resistant); No Serum; read-out: Minimum Inhibitory Concentration.

Some results are limits rather than exact numbers.

As to `O=C(Cc1cccs1)NC1C(=O)N2C(C(=O)O)=C(Br)CS[C@H]12` (stereo partly shown) [7-[2-(2-Thienyl)acetamido]-3-bromo-3-cephem-4-carboxylic acid], the “Zone of Inhibition (diameter in mm)” value (in the assay on Pseudomonas aeruginosa (0.01 mg./ml.); in the assay with Pseudomonas aeruginosa (0.1 mg./ml.); in the assay with Pseudomonas aeruginosa (1.0 mg./ml.); in assay [1] (0.01 mg./ml.); in assay [1] (0.1 mg./ml.); in assay [1] (1.0 mg./ml.)) was “--” in each case. Besides, the “Zone of Inhibition (diameter in mm)” value with Serratia marcescens (0.01 mg./ml.), in the assay with Serratia marcescens (0.1 mg./ml.) and with Serratia marcescens (1.0 mg./ml.) was “--” throughout. Moreover, the MIC in assay [2] is over 20 µg/mL.

(Values after patent publication US4260745A, “3-Halo cephalosporins” (Eli Lilly and Company, priority 1979, dated 1981).)
